Results: patent publication US20030064082A1, “Antipsychotic agents stimulate neurogenesis in brain” (priority 2001, published 2003)
Entries after “also recorded” stand apart in the source; their conditions may differ.

Experiments:
[1] = system: fibroblast growth factor-2; settings: in vivo; cited from earlier work
[2] = system: hippocampal dentate gyrus; assay: Double immunofluorescent staining BrdU/NeuN in the hippocampal dentate gyrus; type: in vivo, rat; settings: 21 days, single BrdU injection at day 20
Procedure: Tissue sections from intestinal mucosa, where many new cells are generated, were used as positive controls. […] Omission of the primary, anti-BrdU antibody provided additional negative controls.
(§1) In these experiments, the effect of the atypical neuroleptics in the hippocampus was evaluated. In the experiments shown in FIG. 5, rats were treated with vehicle, a typical neuroleptic (Haloperidol) (data not shown), or an atypical neuroleptic (Risperidone or Olanzapine) for 21 day s. A single injection of BrdU was given to each rat intraperitoneally at day 20. Frozen sections from rat brain were incubated with a monoclonal mouse-anti BrdU antibody and a biotinylated anti-mouse secondary antibody and developed with avidin-biotin reagent and DAB.
The animal was treated with Olanzapine for 21 day s and a single injection of BrdU given intraperitoneally at day 20. Frozen sections were incubated with sheep-anti BrdU and mouse-anti NeuN antibodies. Secondary antibodies were a combination of Cy-3-conjugated anti-sheep antibody and Cy-2-conjugated anti-mouse antibody.

[3] = system: cognition; assay: Cognitive performance of rats under long-term treatment; type: in vivo, rat; settings: up to 90 days of treatment
Procedure: Atypical Neuroleptics Improve Cognition In this experiment, the effects of atypical neuroleptics and typical neuroleptics on cognition was evaluated. Rats were treated with either vehicle (water), Haloperidol, or Risperidone.

[4] = system: subventricular zone (SVZ); assay: BrdU uptake (newly divided cells) in the subventricular zone of rats after 21 days of drug in drinking water; type: in vivo, rat; settings: for BrdU positive (BrdU+) cells / mean cell counts in the subventricular zone versus vehicle control: rats, 21 days in drinking water, single BrdU injection at day 20
Procedure: Groups of age- and weight-matched (five rats per group) adult male Wistar rats were fed ad libitum for 21 day s with either Haloperidol, 0.4 mg/kg/day, Risperidone (Janssen Pharmaceutica Res Foundation, Piscataway, N.J.) 0.5 mg/kg/day, or Olanzapine (Ely Lilly and Co., Indianapolis, Ind.) 2 mg/kg/day. Control groups received vehicle only. All drugs were administered in drinking water. Water bottles were tightly sealed with leak-proof lids. Fluid intake was measured for each animal for every 3 days and fresh drug was replaced accordingly to maintain the daily dosage.
On the 20th day of treatment, bromodeoxyuridine (BrdU, Sigma Chemical, St. Louis, Mo.), dissolved in distilled water, was injected intraperitonally in a volume of 0.3 ml or less per rat to deliver a dosage of 50 mg/kg, for the labeling of newly divided cells. One day after the BrdU injection, rats were anesthetized under ketamine (100 mg/kg) and xylazine (0.6 mg/kg) anesthesia with saline cardiac perfusion. Brains were removed quickly, placed in a brain matrix, cut into 5-mm blocks, cryoprotected in O.C.T. (Tissue-Tek) compound and frozen in isopentane in liquid nitrogen. Samples were stored at −80° C. until immunostaining.
Coronal brain sections, 10 μm-thick, were cut in a cryotome. Every fifth section was processed for immunohistochemistry with anti-BrdU antibody (Sigma Chemical). Sections were fixed in 4% paraformaldehyde and denatured in 2 N HCl for 30 min. Following incubation with primary antibody, sections were developed with avidin-biotin reagents using a biotinylated donkey anti-mouse-IgG antibody (Vector Labs., Burlingame, Calif.) and diaminobenzidine (DAB). Separate investigators performed sectioning, immunostaining, and counting of BrdU-positive cells in a double-blinded manner. To ensure consistency, one investigator who was unaware of treatment and staining protocols was responsible for counting BrdU-positive cells for the entire study.
SVZ was identified as the cell layer ventral and lateral to the ependymal layer. […] Cells along the lateral aspect of the subependymal region including the dorsolateral angle of the ventricle on both left and right hemispheres, and ventral to the corpus callosum were counted. The few BrdU-positive cells present outside this area were not counted. Five sections from each animal were counted and the average total BrdU positive cells calculated. To validate the BrdU staining of newly divided cells, an antibody against proliferating cell nuclear antigen (PCNA), from Sigma Chemical, was also used.
In these experiments, the effects on neurogenesis of treatment of animals with the atypical neuroleptics, Risperidone and Olanzapine, was assessed. […] In the experiments shown in FIG. 1, rats were treated with a vehicle, a typical neuroleptic, or an atypical neuroleptic for 21 day s. A single injection of BrdU was given to each rat intraperitoneally at day 20. Sections from brains of each animal were prepared and frozen for subsequent analysis. For immunostaining, frozen sections from rat brain were incubated with a monoclonal mouse-anti BrdU antibody, and a biotinylated anti-mouse secondary antibody and developed with avidin-biotin reagent and DAB. Shown in FIG. 1 is the staining for: (A) a vehicle-treated control rat; (B) a Haloperidol-treated rat; (C) a Risperidone-treated rat; and (D) an Olanzapine-treated rat. The arrows show some of the BrdU+ cells. […]
For quantification, the number of BrdU positive cells was counted for each group. […]

[5] = system: nerve growth factor (NGF)-receptor; settings: in vitro; cited from earlier work
[6] = system: nerve growth factor; settings: in vitro; cited from earlier work
[7] = system: superoxide dismutase; settings: in vitro; cited from earlier work
[8] = system: hippocampal dentate gyrus; assay: BrdU+ cell count in the hippocampal dentate gyrus; type: in vivo, rat; settings: 21 days, single BrdU injection at day 20
Procedure: as §1

[9] = system: subventricular zone (SVZ); assay: Double immunofluorescent staining BrdU/NeuN and BrdU/GFAP in the subventricular zone, weekly BrdU injection; type: in vivo, rat; settings: 21 days, BrdU injected at day 7, 14 and 20
Source text: A second study was undertaken in which 15 rats were divided in three treatment groups: Olanzapine-, haldol-, and vehicle-treated. In this study, BrdU injection was given once a week (starting on day 7) and one animal from each group was killed on days 14, 21, 28, 35, and 42. Tissue sections from this study were used in double immunofluorescent staining for either BrdU/NeuN or BrdU/glial fibrillary acidic protein (GFAP).
To evaluate whether the BrdU-positive cells expressed any neuronal or astrocytic markers, sections were subjected to double immunofluorescent staining, using sheep anti-BrdU serum (Biodesign) in combination with either a mouse anti-NeuN (as a neuronal marker, Chemicon, Tememcula, Calif.) or a rabbit anti-glial fibrillary acidic protein (an astrocytic marker, Dako, Carpinteria, Calif.), and the appropriate secondary antibodies that had been conjugated with cyanin dyes were used for visualization (Jackson Lab, Bar Harbor, Me.). […]
To evaluate whether the BrdU-positive cells express any cell type-specific marker, double immunofluoresence microscopy using either anti-NeuN or anti-GFAP antibody in combination with anti-BrdU antibody was performed. […] No BrdU+/GFAP+ cells were detected. Although the double-stained (BrdU+/NeuN+) cells were not quantified, there were clearly more BrdU+/NeuN+ in rats treated with the atypical neuroleptics than that in the untreated control rats.

## CN1CCN(C2=Nc3cc(Cl)ccc3Nc3ccccc32)CC1 [Clozapine, 8-chloro-11-(4-methyl-1-piperazinyl)-5H-dibenzo [b,e] [1,4] diazepine]
[1]
  fibroblast growth factor-2 (FGF-2) expression: increases; also recorded: modulate

## O=C(CCCN1CCC(O)(c2ccc(Cl)cc2)CC1)c1ccc(F)cc1 [Haloperidol]
[2]
  NeuN (or GFAP) expression of BrdU+ cells in the hippocampus: did not express NeuN (or GFAP)
[3]
  cognitive performance as compared to the vehicle: significantly impaired
[4]; 21 days, n=5
  mean cell counts in the subventricular zone versus Olanzapine and Risperidone (Tukey multiple comparison): significantly lower
[4]
  BrdU positive (BrdU+) cells / mean cell counts in the subventricular zone versus vehicle control: No differences
[4]; listed as Haldolperidol
  BrdU positive (BrdU+) cells / mean cell counts in the subventricular zone versus vehicle control: not significantly different

## Cc1cc2c(s1)Nc1ccccc1N=C2N1CCN(C)CC1 [Olanzapine, 2-methyl-4-(4-methyl-1-piperazinyl)-10H-thieno[2,3-b] [1,5]benzodiazepine]
[2]
  NeuN (or GFAP) expression of BrdU+ cells in the hippocampus: 3 BrdU+/NeuN− cells in the subgranular layer and a BrdU+/NeuN+ cell in the apical region of the granular cell layer
[5]
  expression of nerve growth factor (NGF)-receptor: induces the expression
[4]
  BrdU positive (BrdU+) cells / mean cell counts in the subventricular zone versus vehicle control: significant increase; also recorded: significantly higher
[6]
  expression of nerve growth factor: stimulate expression
[7]
  expression of superoxide dismutase: induces the expression
[8]
  average numbers of BrdU-positive cells in the hippocampal dentate gyrus versus control group: higher than the control group
  statistical significance of the increase in neurogenesis in the hippocampus: not statistically significant
[9]
  BrdU+/GFAP+ cells in the SVZ: No BrU+/GFAP+ cells were detected; also recorded: essentially none
  BrdU+/NeuN+ cells in the SVZ: numerous; also recorded: increase

## Cc1nc2n(c(=O)c1CCN1CCC(c3noc4cc(F)ccc34)CC1)CCCC2 [Risperidone, 3-[2-[4-(6-fluoro-1,2-benzisoxazol-3-yl)-1-piperidinyl]ethyl]-6,7,8,9-tetrahydro-2-methyl-4H-pyrido[1,2-a]pyrimidin-4-one]
[3]
  cognitive performance as compared to the vehicle: improved performance
[4]
  BrdU positive (BrdU+) cells / mean cell counts in the subventricular zone versus vehicle control: significant increase; also recorded: significantly higher
[8]
  average numbers of BrdU-positive cells in the hippocampal dentate gyrus versus control group: higher than the control group
  statistical significance of the increase in neurogenesis in the hippocampus: not statistically significant
